Literature values in patent US6514531B1, “Controlled-release dosage forms comprising zolpidem or a salt thereof” (Sanofi-Synthelabo, priority 1998, dated 2003).

Q: With `Cc1ccc(-c2nc3ccc(C)cn3c2CC(=O)N(C)C)cc1` [zolpidem] as the molecule, how does the “kinetics in the therapeutical dose range” value (between 5 and 10 mg in conventional forms) read?
A: linear kinetics

Q: What about the duration of action (hypnotic action, oral, conventional forms) of the same molecule?
A: up to 6 hours
